± gives the standard deviation of the averaged measurements.
Columns and labels:
Experiment in all cases: relative viability vs DMSO control (72 h) (fraction); higher = more viable cells
SK-LMS-1 = tested on: SK-LMS-1
Procedure, shortened: (§1)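 Percent growth from ATPLite readings, averaged over up to triplicate wells, was used as relative viability. Sarcoma cell lines were seeded into 384-well plates for 80–90% confluence, dosed after 24 h, and kept 72 h at 37 °C, 5% CO2. Data were rescaled to a range where 1 is full and 0 is none.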

SW1353 = tested on: SW1353
Procedure, shortened: as §1

SW684 = tested on: SW684
Procedure, shortened: as §1

SW872 = tested on: SW872
Procedure, shortened: as §1

SYO-1 = tested on: SYO-1
Procedure, shortened: as §1

VA-ES-BJ = tested on: VA-ES-BJ
Procedure, shortened: as §1

CCN1C(=O)N(c2c(F)c(OC)cc(OC)c2F)Cc2cnc3[nH]c(CN4CCOCC4)cc3c21 [Pemigatinib]
relative viability
Conditions	SK-LMS-1	SW684	SW872	SW1353	SYO-1	VA-ES-BJ
0.00017 µM	1.05 ± 0.017	1.1 ± 0.053	1.02 ± 0.037	1.06 ± 0.042	0.97 ± 0.0037	1.02 ± 0.011
0.00051 µM	1.09 ± 0.011	1.12 ± 0.056	1.01 ± 0.033	1.02 ± 0.014	0.962 ± 0.03	1.03 ± 0.021
0.00152 µM	1.105 ± 0.004	1.13 ± 0.017	1 ± 0.072	1.02 ± 0.04	0.89 ± 0.055	1.023 ± 0.008
0.00457 µM	1.08 ± 0.022	1.07 ± 0.04	1.02 ± 0.031	0.964 ± 0.024	0.86 ± 0.055	1.011 ± 0.0039
0.01372 µM	1.09 ± 0.049	1.12 ± 0.024	0.999 ± 0.025	0.886 ± 0.012	0.774 ± 0.1	1.04 ± 0.037
0.04115 µM	1.07 ± 0.012	1.07 ± 0.064	0.999 ± 0.073	0.879 ± 0.011	0.763 ± 0.067	1.05 ± 0.022
0.1235 µM	1.07 ± 0.07	1.05 ± 0.1	0.964 ± 0.065	0.863 ± 0.036	0.733 ± 0.071	1.036 ± 0.0072
0.3704 µM	1.07 ± 0.026	1.13 ± 0.048	0.975 ± 0.053	0.843 ± 0.051	0.725 ± 0.056	1.04 ± 0.02
1.111 µM	0.9589 ± 0.0065	1.1 ± 0.04	0.911 ± 0.026	0.836 ± 0.014	0.687 ± 0.056	0.956 ± 0.023
3.333 µM	0.667 ± 0.042	0.971 ± 0.017	0.739 ± 0.013	0.716 ± 0.015	0.652 ± 0.018	0.775 ± 0.029
10 µM	0.528 ± 0.021	0.802 ± 0.028	0.713 ± 0.021	0.539 ± 0.011	0.635 ± 0.028	0.702 ± 0.016

Source: the supplement of paper PMC10883282
